Four compounds from PMC7155171, “Probing the Open Global Health Chemical Diversity Library for Multistage-Active Starting Points for Next-Generation Antimalarials” (ACS Infectious Diseases, 2020) can be followed below.

Experiment [1] relates to HepG2-A16-CD81 hepatocytes. Briefly: HepG2 cytotoxicity screening (CellTiter-Glo). As to conditions: HepG2-A16-CD81, read-out: HepG2 tox IC50. Background: In ATP-based viability assays light output follows the ATP content of the culture.
Experiment [2] has as its system P. vivax patient isolates, exoerythrocytic forms (schizonts and hypnozoites). Briefly: P. vivax liver stage assay in HC04 cells (immunofluorescence). Particulars: HC04 cells treated 24 h before sporozoites, nanomolar concentrations, counted day 7.
Experiment [3] has as its system P. berghei liver stage (PbLuc). Briefly: P. berghei luciferase liver stage (PbLuc) assay in HepG2-A16-CD81 hepatocytes. The format is cell-based, Plasmodium berghei. As to conditions: 48 h liver stage, HepG2-A16-CD81; for IC50: Plasmodium berghei, HepG2-A16-CD81, 48 h, read-out: Pbluc (EEF) IC50.
For experiment [4], the target named is recombinant firefly luciferase (Photinus pyralis, UniProt P08659). Briefly: biochemical. As to conditions: read-out: rLuc IC50.
Chain of recombinant firefly luciferase (P08659 whole entry): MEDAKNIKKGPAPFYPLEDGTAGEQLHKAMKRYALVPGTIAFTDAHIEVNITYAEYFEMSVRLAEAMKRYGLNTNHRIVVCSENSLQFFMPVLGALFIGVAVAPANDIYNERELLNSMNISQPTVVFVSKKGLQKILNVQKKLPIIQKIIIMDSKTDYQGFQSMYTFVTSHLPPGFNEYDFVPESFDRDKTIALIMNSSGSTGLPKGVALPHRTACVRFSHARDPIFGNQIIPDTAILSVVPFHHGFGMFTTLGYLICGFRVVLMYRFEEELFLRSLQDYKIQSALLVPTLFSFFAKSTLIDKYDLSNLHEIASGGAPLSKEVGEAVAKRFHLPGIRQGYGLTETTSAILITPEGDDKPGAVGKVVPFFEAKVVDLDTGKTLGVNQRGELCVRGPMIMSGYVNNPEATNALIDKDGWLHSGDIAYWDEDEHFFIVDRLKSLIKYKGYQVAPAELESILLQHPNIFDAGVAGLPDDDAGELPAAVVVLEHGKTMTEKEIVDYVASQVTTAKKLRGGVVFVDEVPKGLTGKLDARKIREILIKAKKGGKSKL
Experiment [5] deals with P. falciparum Dd2. Briefly: SYBR green I asexual blood stage proliferation assay (96 h). The class given is cell-based, Plasmodium falciparum. As to conditions: Plasmodium falciparum.
For experiment [6], the system named is P. falciparum Dd2 (PfLuc) line expressing firefly luciferase, asexual blood stage. Briefly: microbe, parasite or virus in culture. As to conditions: for IC50 / Emax: Plasmodium falciparum. The format is cell-based, Plasmodium falciparum.
The subject of experiment [7] is P. falciparum asexual blood stage (wild-type and DDD01061024-resistant Dd2-B2 clones). Briefly: Lactate dehydrogenase (LDH) asexual blood stage assay. The format is cell-based, Plasmodium falciparum. Particulars: for IC50: Plasmodium falciparum. The text has this: Mutations within this site, and indeed at our V259L residue, were previously reported using other known cytochrome b inhibitors including ELQ400[49] and RYL-552.[50]
(§1) Figure S3. DDD01061024 is a cytochrome bc1 inhibitor.
The dual stage inhibitor, DDD01061024, is shown occupying the Q0 site (residues outlined in orange) of a Pf Cyt Bc1 homology model (from PDB: 1BE3) (a). A local V259L substitution (red) in mutant clones may destabilize the interactions within this pocket, helping resistant clones tolerate higher doses of the inhibitor (b). DDD01061024-resistannt mutants show cross-resistance to atovaquone (c), another multistage active antimalarial which targets the Q0 binding site. Dose dependent inhibition was determined using a metabolic endpoint (LDH) before normalizing to controls (n=2). Measuring the percentage of PbGFP infected hepatocytes using a high content imaging system validates the liver-stage potency of DDD01061024 in a fluorescence-based model (d). Infected hepatocytes were counted using luminescence-independent high content imaging in treated wells and normalized to controls over two replicates.
(1 picture or pasted object on this page, not shown here)

Experiment [8] concerns P. berghei-GFP (PbGFP) liver stage. Briefly: P. berghei-GFP liver stage high content imaging in Huh7.5.1 hepatocytes. Particulars: Plasmodium berghei, Huh-7.5.1, 48 h, read-out: liver stage high content imaging assay IC50. The format is cell-based. The procedure:
For the fluorescent liver stage validation, roughly 2500 P. berghei-GFP (PbGFP) sporozoites[76] were dissected from mosquitoes provided by the NYU Insectary Core Facility and seeded onto a lawn of 5000 Huh7.5.1 hepatocytes in 384-well plates. These assay plates were pretreated with DDD01061024 in 8-point dose response (10–4.57 × 10^–3 μM), with atovaquone (0.5–3.91 × 10^–3 μM) and DMSO (0.5%) as positive and negative controls, respectively. Unlike our standard HepG2 cell line, these Huh7.5.1 cells lack GFP expression, making it preferable for these experiments. After a 48 h incubation in the presence of our test compounds, the presence of GFP positive infected cells were imaged and counted using the Operetta High-content Imaging System (PerkinElmer).
as §1
The dual stage inhibitor, DDD01061024, is shown occupying the Q0 site (residues outlined in orange) of a Pf Cyt Bc1 homology model (from PDB: 1BE3) (a). […] Dose dependent inhibition was determined using a metabolic endpoint (LDH) before normalizing to controls (n=2). Measuring the percentage of PbGFP infected hepatocytes using a high content imaging system validates the liver-stage potency of DDD01061024 in a fluorescence-based model (d). Infected hepatocytes were counted using luminescence-independent high content imaging in treated wells and normalized to controls over two replicates. […]

Like-named read-outs stand apart in the source and are kept apart here. A value given as a limit tells only on which side of the number the result lay.

A word on the IC50: it is the concentration needed to halve the response being measured. Turning to `Cc1cc(NC(=O)C(C)C)n(-c2nc(C)c(C)c(=O)[nH]2)n1` [DDD01027481], the half-inhibitory concentration (IC50) is over 25000 nM in experiment [1], 138 nM in experiment [3] and over 50000 nM in experiment [4]. Further, in experiment [2], the “P. vivax hypnozoites or schizonts after treatment” value is “no detectable hypnozoites or schizonts”.
In the same order, the values of `CCc1c(C)nc(-n2nc(C3CC3)cc2NC(C)=O)[nH]c1=O` [DDD01027733] are over 25000 nM, 96 nM, over 50000 nM and “no detectable hypnozoites or schizonts”.
As for `Cc1ccc(-c2ccc(C3CNCCO3)nc2)cc1` (stereo not shown) [DDD01061024], the Emax in experiment [5] (DD2, Sybr Green I, 11-pt dose response, 96hr, read-out: CDD P. falciparum Sybr Green I ABS 11-pt Reconfirmation Dose Response (96hr): Maximum inhibition (%)) is 98.9%; in experiment [6] (DD2, 11-pt dose response, 48hr, read-out: CDD P. falciparum Luciferase ABS 11-pt Reconfirmation Dose Response (48hr): Maximum inhibition (%)), 99.6%; in experiment [6] (DD2, 11-pt dose response, 96hr, read-out: CDD P. falciparum Luciferase ABS 11-pt Reconfirmation Dose Response (96hr): Maximum inhibition (%)), 99.5%. The IC50 is 344 nM in experiment [5] (96 h, Dd2, read-out: 96 h SYBR green ABS IC50); 0.533 µM in experiment [6] (DD2, read-out: CDD P. falciparum Luciferase ABS 11-pt Reconfirmation Dose Response (48hr): IC50 (μM), 11-pt dose response, 48hr); 0.2 µM in experiment [6] (DD2, 8-pt dose response, 96hr, read-out: CDD P. falciparum Luciferase ABS 8-pt Reconfirmation Dose Response (96hr): IC50); 0.574 µM in experiment [6] (DD2, 11-pt dose response, 96hr, read-out: CDD P. falciparum Luciferase ABS 11-pt Reconfirmation Dose Response (96hr): IC50); over 50000 nM in experiment [1]; under 0.141 nM in experiment [3]. Also, the concentration for half-maximal inhibition (IC50) was 521 nM in experiment [7] (DD2, read-out: LDH ABS assay IC50); 375 nM in experiment [8]; 3.2 nM in experiment [4]. Moreover, the “ABS IC50” value in experiment [6] (asexual blood stage, assay format not given) was “submicromolar”. The “Pbluc (EEF) IC50” value in experiment [3] is reported as “submicromolar”.
In the case of `O=C1C(O)=C([C@H]2CC[C@H](c3ccc(Cl)cc3)CC2)C(=O)c2ccccc21` [atovaquone], the “fold increase of IC50, DDD01061024 mutants vs wild-type” value in experiment [7] is listed as 11 fold. The half-inhibitory concentration (IC50) in experiment [7] (DD2, read-out: IC50 against wild-type parasites) came to 0.377 nM; in experiment [7] (DD2, read-out: IC50 in DDD01061024 mutants) it was 4.19 nM.
